Measurements reported in paper PMC8379256, “A xanthene derivative, DS20060511, attenuates glucose intolerance by inducing skeletal muscle-specific GLUT4 translocation in mice” (Communications Biology, 2021).
Where “and” joins values, the source holds several entries; their conditions need not be identical. Equal entries are not always repeated.

Assays:
[1] = tested on: isolated skeletal muscles; test: 2-DG uptake with 100 nM insulin in isolated muscles from C57BL/6 mice; parameters: species or system mouse; conditions: for 2DOG Trn / IC 2DOG / Raio (2-DG uptake relative to untreated control): isolated muscles, individual muscles #1-3; for 2DOG Trn / IC 2DOG: 2DG 1 mM, incubation 10 min
Procedure: (§1) Arrowheads indicate the characteristic ruffled structure of the polymerized actin and actin-associated surface GLUT4. d GLUT4 translocation activity of 30 μM DS20060511 or 100 nM insulin in the presence of the actin polymerization inhibitor, Latrunculin B, at the indicated concentrations. Values shown are means ± SEM, n = 3. **P < 0.01 vs. 0 nM Latrunculin B by one-way ANOVA followed by Dunnett’s test. e Concentration-dependent insulin-stimulated GLUT4 translocation in L6-GLUT4myc myotubes with or without 30 μM DS20060511 (n = 3). f Concentration-dependent DS20060511-stimulated 2-DG uptake with 100 nM insulin in isolated muscles from C57BL/6 mice (n = 3). Values shown are means ± SEM. ***P < 0.001 by one-way ANOVA followed by Tukey’s test. g Blood glucose levels during ITT in STZ-treated C57BL/6 mice (n = 6–7). Vehicle or indicated dose of DS20060511 was given orally at the same time as 0.1 U kg^−1 insulin injection intraperitoneally. Values shown are means ± SEM. *P < 0.05 vs. vehicle by one-way ANOVA followed by Dunnett’s test. c Scale bar in all panels, 5 μm. Uncropped blots for a and b can be found in Supplementary Fig. 6.
The soleus or EDL muscle was removed from anesthetized mice (isoflurane anesthesia) that had been denied access to food overnight, and incubated with oxygenated (95% O2/5% CO2) Krebs-Henseleit Bicarbonate (KHB) buffer (118.1 mM NaCl, 4.7 mM KCl, 1.1 mM KH2PO4, 1.2 mM MgSO4, 2.5 mM CaCl2, and 25 mM NaHCO3, pH7.4) in the presence of 11.1 mM glucose at 37 °C. The muscle specimens were then treated with the indicated concentrations of the compounds in KHB buffer containing 11.1 mM glucose and 8 mM mannitol for 10 min at 37 °C. Thereafter, the muscles were rinsed with KHB buffer containing 8 mM mannitol and the compounds for 5 min at 37 °C. Lastly, the muscles were treated with the compounds in KHB buffer containing 1 mM 2-DG (with 0.3 μCi mL^−1 [^3H]-2-DG) and 8 mM mannitol (with 0.03 μCi mL^−1 [^14C]-mannitol) for 10 min at 37 °C. After the muscle specimens were washed, they were lysed with 1 N NaOH and neutralized with 1 N HCl. The ^14C- and ^3H-specific activities were counted with a liquid scintillation counter. The specific uptake of 2-DG was calculated by subtracting the nonspecific uptake of mannitol from the total 2-DG uptake. To investigate the effects of muscle contraction, muscle contraction was induced by electrical stimulation with 5 Hz (1 ms pulse duration, 100 V) for 10 min (SEN-5201, Nihon Koden, Tokyo, Japan).

[2] = tested on: L6-GLUT4myc myotubes; test: Fluorescence immunostaining of cell surface GLUT4 and actin fibers in L6-GLUT4myc myotubes; format: cell-based, rat; conditions: 30 μM DS20060511 or 100 nM insulin; Fig. 4c
Procedure: as §1
Differentiated L6-GLUT4myc myotubes were prepared in a collagen-coated four-well chamber slide. After serum starvation for 3 h, the cells were stimulated with insulin or DS20060511 for 15 min at 37 °C. Cells were rinsed with cold PBS(+), fixed with 4% paraformaldehyde for 30 min on ice and blocked with 1% BSA and 10% normal goat serum in PBS(+) for 30 min at room temperature. Surface GLUT4myc staining was carried out without cell membrane permeabilization. Cells were incubated with anti-c-Myc antibody for 30 min at room temperature, followed by treatment with 0.1% Triton-X. After blocking, the cells were incubated with Alexa 488-conjugated secondary antibody and Alexa 594-conjugated phalloidin for 30 min at room temperature. Fluorescence images were obtained with a Leica TSC-SP8 confocal microscope. Specimens were scanned along the z-axis and a single-composite image was generated by the maximal projection method using the LAS software (Leica Microsystems, Wetzlar, Germany).

[3] = tested on: WT and eNOSKO mice; test: Oral GTT in wild-type and eNOS-knockout mice; format: in vivo, mouse; conditions: for Blood glucose: Glucose tolerance test, Wildtype, 10 mg/kg, individual animals
Procedure: Fig. 7 DS20060511 treatment decreases blood glucose levels in both WT and eNOSKO mice during oral GTT and ITT. a, b Blood glucose levels during oral GTT in wild-type (WT, n = 5) and eNOS-knockout (KO, n = 5–6) mice. Mice received vehicle or DS20060511 (10 mg kg^−1) orally 15 min before the glucose administration (3.0 g kg^−1). c, d Blood glucose levels during ITT in WT (n = 4) and KO (n = 5) mice. Vehicle or DS20060511 (30 mg kg^−1) was given orally at the same time as 0.5 U kg^−1 insulin injection intraperitoneally. Values shown are means ± SEM. *P < 0.05, **P < 0.01, ***P < 0.001 vs. vehicle by the t-test.
C57BL/6 and db/db mice were purchased from CLEA Japan, Tokyo, Japan. GLUT4- knockout mice were generated at RIKEN BioResource Center, Tsukuba, Japan, according to a previously described method. eNOS-knockout mice were kindly provided by Dr. Masato Tsutsui[41],[42]. The mice were group-housed under controlled illumination (12:12 h light-dark cycle) and temperature (23 ± 2 °C) conditions and given free access to normal chow and water, unless otherwise specified. The HFD-fed obese mice were prepared by feeding C57BL/6 mice a HFD for at least 8 weeks from 6 weeks of age. […] Male mice were used for all the experiments in this study. The animal care and experimental procedures used in the study were approved by The University of Tokyo Animal Care Committee (Approval number: 27-3), and the study was carried out in accordance with the Animal Experimentation Guidelines of Daiichi Sankyo Co., Ltd (Approved number: 20000411).
Mice that had been denied access to food overnight received the indicated oral dose of DS20060511 or vehicle 15 min prior to the glucose load (1.5 g kg^−1, except for eNOS-knockout mice, which received 3.0 g kg^−1). Then, after the oral glucose load, the blood glucose levels were measured using Glutest Every in samples obtained from the tail vein at the indicated timepoints. Plasma insulin concentrations were also measured with an ELISA kit (Morinaga Institute of Biological Science, Yokohama, Japan) in blood samples collected from the tail vein at the indicated timepoints.

[4] = DS20060511 1 μM + insulin 100 nM
[5] = DS20060511 10 μM + insulin 100 nM
[6] = insulin 100 nM alone (DS20060511 0 μM)

Row | Compound | 2-DG uptake induced by insulin, concomitant DS20060511 ([1]; 100 nM insulin, isolated skeletal muscles, Fig. 4f) | 2DOG Trn [1, 4] | IC 2DOG [1, 4] | Raio (2-DG uptake relative to untreated control) [1, 4] | 2DOG Trn [1, 5] | IC 2DOG [1, 5] | actin polymerization [2] | staining of GLUT4 at the cell surface [2] | Blood glucose ([3]; 0 min) | Blood glucose ([3]; 15 min) | Blood glucose ([3]; 30 min) | Blood glucose ([3]; 60 min) | Blood glucose ([3]; 90 min) | Blood glucose ([3]; 120 min) | Blood glucose ([3]; -15 min) | blood glucose levels during oral GTT (in words) ([3]; WT and eNOSKO mice, 10 mg kg−1 po) | 2DOG Trn [1, 6] | IC 2DOG [1, 6] | Raio (2-DG uptake relative to untreated control) [1, 6]
1 | COc1ccc2c(C)c(C(=O)O)ccc2c1C1C2=C(CC(C)(C)CC2=O)OC2=C1C(=O)CC(C)(C)C2 [DS20060511] | additively increased | 935 nmol/ml and 93.5 µM/min and 1062 nmol/ml and 106.2 µM/min and 1054 nmol/ml and 105.4 µM/min | 559 nmol/g and 682 nmol/g and 640 nmol/g | 2.70 and 3.07 and 3.04 | 1281 nmol/ml and 128.1 µM/min and 1209 nmol/ml and 120.9 µM/min and 1137 nmol/ml and 113.7 µM/min | 656 nmol/g and 556 nmol/g and 565 nmol/g | observed only following insulin treatment | strong staining of GLUT4 at the cell surface | 96 mg/dL and 111 mg/dL and 104 mg/dL and 93 mg/dL and 82 mg/dL | 260 mg/dL and 212 mg/dL and 232 mg/dL and 229 mg/dL and 231 mg/dL and 181 mg/dL | 253 mg/dL and 242 mg/dL and 215 mg/dL and 185 mg/dL and 284 mg/dL and 213 mg/dL | 212 mg/dL and 210 mg/dL and 226 mg/dL and 281 mg/dL and 196 mg/dL | 159 mg/dL and 172 mg/dL and 132 mg/dL and 150 mg/dL and 218 mg/dL and 154 mg/dL | 120 mg/dL and 128 mg/dL and 115 mg/dL and 130 mg/dL and 170 mg/dL and 127 mg/dL | 79 mg/dL and 94 mg/dL and 75 mg/dL and 91 mg/dL and 73 mg/dL and 81 mg/dL | significantly decreased blood glucose levels in both the WT and eNOSKO mice |  |  | 
2 | Insulin: Insulin (Humulin, Eli Lilly) in the in vivo experiments; Insulin solution human (I9278, Sigma–Aldrich) in the in vitro experiments |  |  |  |  |  |  | observed only following insulin treatment | strong staining of GLUT4 at the cell surface |  |  |  |  |  |  |  |  | 573 nmol/ml and 57.3 µM/min and 622 nmol/ml and 62.2 µM/min and 629 nmol/ml and 62.9 µM/min | 376 nmol/g and 331 nmol/g and 410 nmol/g | 1.65 and 1.79 and 1.82
